Results from ChEMBL document CHEMBL4368864, “The transition to magic bullets - transition state analogue drug design” (Medchemcomm, 2018).
Each block holds one molecule with its values, some of them ahead of it.

What was measured:
[1] = biological target: T1, Purine nucleoside phosphorylase (Bos taurus, UniProt P55859); assay: Inhibition of bovine spleen PNP using inosine as substrate by xanthine oxidase coupled assay
T1 sequence (P55859 whole entry): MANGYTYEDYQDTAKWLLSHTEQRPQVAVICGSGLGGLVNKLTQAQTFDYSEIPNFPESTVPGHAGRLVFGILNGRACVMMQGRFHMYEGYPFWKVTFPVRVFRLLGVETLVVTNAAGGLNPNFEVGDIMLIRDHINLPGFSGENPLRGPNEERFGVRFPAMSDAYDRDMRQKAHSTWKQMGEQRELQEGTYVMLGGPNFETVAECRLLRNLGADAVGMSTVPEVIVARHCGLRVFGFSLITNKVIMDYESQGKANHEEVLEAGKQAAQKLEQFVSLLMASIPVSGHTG

[2] = biological target: T2, Purine nucleoside phosphorylase (Homo sapiens, UniProt P00491); assay: Inhibition of human PNP using inosine as substrate by xanthine oxidase coupled assay
T2 sequence (P00491 whole entry): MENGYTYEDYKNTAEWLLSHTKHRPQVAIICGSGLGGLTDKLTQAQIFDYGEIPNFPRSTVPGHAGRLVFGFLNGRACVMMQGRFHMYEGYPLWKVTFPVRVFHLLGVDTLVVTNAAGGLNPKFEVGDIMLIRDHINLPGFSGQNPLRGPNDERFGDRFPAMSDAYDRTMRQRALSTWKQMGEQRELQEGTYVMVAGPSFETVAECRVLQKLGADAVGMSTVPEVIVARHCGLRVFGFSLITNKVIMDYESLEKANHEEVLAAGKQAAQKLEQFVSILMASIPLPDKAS

[3] = Inhibition of Crithidia fasciculata nucleoside hydrolase
[4] = biological target: T2, Purine nucleoside phosphorylase; assay: Inhibition of human PNP
[5] = Oral bioavailability in mouse; type: ADME, organism-based; conditions: in vivo

Structure (SMILES): OC[C@H]1N[C@@H](c2cnc[nH]2)[C@H](O)[C@@H]1O
Ki [3]: 2.5 µM

Structure (SMILES): Nc1nc2c(ncn2COCCO)c(=O)[nH]1 [ACYCLOVIR]
Ki [4]: 91 µM

Structure (SMILES): O=c1[nH]cnc2c([C@@H]3N[C@H](CO)[C@@H](O)[C@H]3O)c[nH]c12 [FORODESINE]
bioavailability [5]: 63%

Structure (SMILES): Nc1nc2c(Cc3cccnc3)c[nH]c2c(=O)[nH]1 [PELDESINE]
Ki [4]: 0.0135 µM

Further lines, results first:

Ki [1]: 2.6 µM
Ki [2]: 0.033 µM
Structure (SMILES): Nc1ncnc2c([C@@H]3N[C@H](CO)[C@@H](O)[C@H]3O)c[nH]c12

Ki [3]: 0.17 µM
Structure (SMILES): OC[C@H]1N[C@@H](c2ccccc2)[C@H](O)[C@@H]1O

Ki [1]: 422 µM
Structure (SMILES): O=c1[nH]ccn2c([C@@H]3N[C@H](CO)[C@@H](O)[C@H]3O)cnc12

Ki [3]: 10 µM
Structure (SMILES): OC[C@H]1NC[C@H](O)[C@@H]1O [IMINORIBITOL]

Ki [3]: 380 µM
Structure (SMILES): O=c1[nH]cnc2c1ncn2[C@@H]1O[C@H](CO)[C@@H](O)[C@H]1O [INOSINE]
